Measured values as given in ChEMBL document CHEMBL3431459, “Roche carnitine palmitoyltransferase modulator screening data (supplementary data associated with the publication CHEMBL2216752)”.
Values after ≈ are worked out from the molar mass of the structure shown.

Columns and labels:
[1] = SUPPLEMENTARY: Lipophilicity (log D) Determination by high-throughput shake-flask; assay type: physicochemical; settings: octanol/water
[2] = SUPPLEMENTARY: PAMPA permeability assay; assay type: physicochemical; settings: read-out: Permeability
[3] = SUPPLEMENTARY: Lyophilisation Solubility Assay (LYSA); assay type: physicochemical; settings: read-out: Kinetic_solubility
[4] = target: T1, Carnitine O-palmitoyltransferase 2, mitochondrial (Rattus norvegicus, UniProt P18886); experiment: (§1) SUPPLEMENTARY: Inhibition of Carnitine palmitoyltransferase 2
T1 sequence (P18886 whole entry): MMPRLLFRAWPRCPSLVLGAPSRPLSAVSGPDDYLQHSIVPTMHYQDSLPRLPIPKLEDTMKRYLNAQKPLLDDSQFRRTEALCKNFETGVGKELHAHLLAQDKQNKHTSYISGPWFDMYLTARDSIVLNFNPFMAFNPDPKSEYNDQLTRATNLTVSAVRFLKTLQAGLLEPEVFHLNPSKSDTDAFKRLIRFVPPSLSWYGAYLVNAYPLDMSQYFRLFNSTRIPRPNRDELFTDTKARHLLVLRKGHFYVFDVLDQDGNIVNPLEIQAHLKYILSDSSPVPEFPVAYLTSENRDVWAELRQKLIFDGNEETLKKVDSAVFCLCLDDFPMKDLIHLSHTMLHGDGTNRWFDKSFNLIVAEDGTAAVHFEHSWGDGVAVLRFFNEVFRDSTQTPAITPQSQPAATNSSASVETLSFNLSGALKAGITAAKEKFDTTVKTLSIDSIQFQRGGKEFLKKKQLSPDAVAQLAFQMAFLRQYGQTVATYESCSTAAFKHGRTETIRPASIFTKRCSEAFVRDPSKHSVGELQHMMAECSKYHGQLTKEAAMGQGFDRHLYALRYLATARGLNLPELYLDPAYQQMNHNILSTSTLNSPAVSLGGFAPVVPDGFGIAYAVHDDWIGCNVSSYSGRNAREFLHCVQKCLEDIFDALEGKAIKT

[5] = target: T2, Carnitine O-palmitoyltransferase 2, mitochondrial (Homo sapiens, UniProt P23786); experiment: as §1
T2 sequence (P23786 whole entry): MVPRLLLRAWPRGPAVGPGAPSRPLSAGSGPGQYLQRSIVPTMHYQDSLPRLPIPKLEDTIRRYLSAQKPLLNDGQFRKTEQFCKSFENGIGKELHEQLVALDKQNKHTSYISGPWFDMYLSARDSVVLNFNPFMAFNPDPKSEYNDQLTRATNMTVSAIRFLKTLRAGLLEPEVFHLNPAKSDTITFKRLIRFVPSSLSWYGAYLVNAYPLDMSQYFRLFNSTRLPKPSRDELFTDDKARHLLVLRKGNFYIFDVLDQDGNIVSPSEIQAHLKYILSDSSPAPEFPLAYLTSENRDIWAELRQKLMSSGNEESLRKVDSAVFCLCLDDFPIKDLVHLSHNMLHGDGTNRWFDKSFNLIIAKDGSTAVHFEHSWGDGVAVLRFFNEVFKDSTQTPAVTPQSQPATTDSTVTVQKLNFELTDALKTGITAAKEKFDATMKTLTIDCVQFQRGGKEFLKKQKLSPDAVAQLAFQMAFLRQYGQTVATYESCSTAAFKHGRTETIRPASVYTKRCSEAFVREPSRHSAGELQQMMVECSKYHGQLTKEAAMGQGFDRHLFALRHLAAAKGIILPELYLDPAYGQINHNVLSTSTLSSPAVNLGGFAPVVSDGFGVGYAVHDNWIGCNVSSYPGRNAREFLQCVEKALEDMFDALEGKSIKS

[6] = target: T3, Carnitine O-palmitoyltransferase 1, muscle isoform (Homo sapiens, UniProt Q92523); experiment: SUPPLEMENTARY: Inhibition of Carnitine palmitoyltransferase 1, muscle isoform; design: species or system Muscle tissue
T3 sequence (Q92523 whole entry): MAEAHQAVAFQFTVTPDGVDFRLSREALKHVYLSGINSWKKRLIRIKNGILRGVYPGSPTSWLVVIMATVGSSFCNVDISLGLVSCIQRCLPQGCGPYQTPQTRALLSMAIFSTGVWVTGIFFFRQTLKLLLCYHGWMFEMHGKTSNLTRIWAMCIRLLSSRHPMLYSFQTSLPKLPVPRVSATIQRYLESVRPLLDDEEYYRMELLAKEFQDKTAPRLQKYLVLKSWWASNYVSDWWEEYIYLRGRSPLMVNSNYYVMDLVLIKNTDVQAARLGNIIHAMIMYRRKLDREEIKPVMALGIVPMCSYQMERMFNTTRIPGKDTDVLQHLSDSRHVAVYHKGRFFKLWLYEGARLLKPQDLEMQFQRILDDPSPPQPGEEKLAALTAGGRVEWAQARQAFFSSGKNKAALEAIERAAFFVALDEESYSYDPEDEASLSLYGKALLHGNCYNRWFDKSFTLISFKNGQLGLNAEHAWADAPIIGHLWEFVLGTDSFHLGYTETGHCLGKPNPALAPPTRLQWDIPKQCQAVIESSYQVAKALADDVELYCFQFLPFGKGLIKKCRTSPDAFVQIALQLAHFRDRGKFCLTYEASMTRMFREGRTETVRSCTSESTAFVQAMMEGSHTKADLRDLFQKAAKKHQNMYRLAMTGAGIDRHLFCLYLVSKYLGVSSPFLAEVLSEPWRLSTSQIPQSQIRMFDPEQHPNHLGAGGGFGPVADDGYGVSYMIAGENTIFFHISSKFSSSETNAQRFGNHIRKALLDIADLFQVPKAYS

[7] = target: T4, Carnitine O-palmitoyltransferase 1, liver isoform (Rattus norvegicus, UniProt P32198); experiment: (§2) SUPPLEMENTARY: Inhibition of Carnitine palmitoyltransferase 1, liver isoform
T4 sequence (P32198 whole entry): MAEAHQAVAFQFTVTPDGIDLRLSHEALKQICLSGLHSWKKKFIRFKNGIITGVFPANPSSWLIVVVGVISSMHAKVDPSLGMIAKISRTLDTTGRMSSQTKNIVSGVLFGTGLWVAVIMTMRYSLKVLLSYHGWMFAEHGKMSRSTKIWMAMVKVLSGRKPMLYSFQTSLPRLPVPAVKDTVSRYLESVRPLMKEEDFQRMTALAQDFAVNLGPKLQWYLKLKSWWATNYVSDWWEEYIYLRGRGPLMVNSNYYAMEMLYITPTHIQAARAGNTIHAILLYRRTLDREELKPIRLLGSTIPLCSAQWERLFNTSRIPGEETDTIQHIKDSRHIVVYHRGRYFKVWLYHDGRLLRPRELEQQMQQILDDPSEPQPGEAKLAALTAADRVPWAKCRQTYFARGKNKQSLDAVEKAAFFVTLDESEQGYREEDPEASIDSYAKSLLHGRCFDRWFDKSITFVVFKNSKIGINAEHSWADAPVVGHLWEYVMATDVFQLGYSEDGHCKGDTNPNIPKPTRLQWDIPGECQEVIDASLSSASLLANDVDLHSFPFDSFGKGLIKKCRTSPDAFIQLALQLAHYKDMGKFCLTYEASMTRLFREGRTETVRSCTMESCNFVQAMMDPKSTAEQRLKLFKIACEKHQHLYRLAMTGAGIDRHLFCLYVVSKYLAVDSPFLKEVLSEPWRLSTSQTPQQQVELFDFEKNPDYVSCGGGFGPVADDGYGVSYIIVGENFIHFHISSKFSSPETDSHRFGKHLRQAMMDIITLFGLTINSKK

[8] = target: T5, Carnitine O-palmitoyltransferase 1, liver isoform (Homo sapiens, UniProt P50416); experiment: as §2
T5 sequence (P50416 whole entry): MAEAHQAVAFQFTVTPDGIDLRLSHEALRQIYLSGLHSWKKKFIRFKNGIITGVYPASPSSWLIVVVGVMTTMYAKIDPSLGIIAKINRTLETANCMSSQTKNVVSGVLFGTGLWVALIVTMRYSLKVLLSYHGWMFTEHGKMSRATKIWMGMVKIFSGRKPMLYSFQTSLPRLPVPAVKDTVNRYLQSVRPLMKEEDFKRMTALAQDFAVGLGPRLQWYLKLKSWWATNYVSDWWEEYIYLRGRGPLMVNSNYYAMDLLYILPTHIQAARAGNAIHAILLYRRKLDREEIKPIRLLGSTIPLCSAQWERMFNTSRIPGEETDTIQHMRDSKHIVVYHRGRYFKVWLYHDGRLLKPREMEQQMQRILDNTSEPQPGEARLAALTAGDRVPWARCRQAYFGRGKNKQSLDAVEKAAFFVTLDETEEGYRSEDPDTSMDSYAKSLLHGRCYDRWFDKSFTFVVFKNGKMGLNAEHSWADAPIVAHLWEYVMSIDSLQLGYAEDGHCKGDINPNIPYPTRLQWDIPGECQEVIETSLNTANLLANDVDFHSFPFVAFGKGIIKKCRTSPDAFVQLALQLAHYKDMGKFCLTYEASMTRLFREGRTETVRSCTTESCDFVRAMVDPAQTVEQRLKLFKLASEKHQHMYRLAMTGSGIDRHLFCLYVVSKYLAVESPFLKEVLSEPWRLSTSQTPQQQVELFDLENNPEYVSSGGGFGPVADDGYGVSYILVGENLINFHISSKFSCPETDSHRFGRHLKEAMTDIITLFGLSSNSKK

SMILES	logD [1]	Papp [2]	solubility kinetic [3]	IC50 [4]	IC50 [5]	IC50 [6]	IC50 [7]	IC50 [8]
O=C(COc1ccccc1)N1CCCC[C@@H]1c1noc(-c2ccc3[nH]nnc3c2)n1	2.22	21.4 nm/s	0.0465 mg/mL (≈ 115 µM)	> 100 µM	> 100 µM	> 100 µM	0.916 µM	0.0794 µM
COc1ccc(Cl)cc1S(=O)(=O)N1CCOc2c(F)cc(C(=O)Nc3ccc(C(=O)O)c(F)c3)cc21	0.52	16.6 nm/s	0.007 mg/mL (≈ 13 µM)	6.51 µM	1.53 µM	4.56 µM	0.0567 µM	0.0575 µM
O=C(COc1ccccc1)N1CCCC[C@@H]1c1noc(-c2cc([N+](=O)[O-])[nH]n2)n1	1.07	69.9 nm/s	0.068 mg/mL (≈ 171 µM)	> 100 µM	> 100 µM	> 100 µM	0.388 µM	0.14 µM
NC(=O)COc1cccc(-c2noc([C@H]3CCCCN3C(=O)COc3ccccc3)n2)c1	2.51	24.9 nm/s	0.057 mg/mL (≈ 131 µM)	> 100 µM	18.5 µM	> 100 µM	0.147 µM	0.0636 µM
COc1ccc(Cl)cc1S(=O)(=O)N(C)c1cc(C(=O)Nc2ccn(CC(=O)O)n2)cc2c1OCO2	-1.41	1.3 nm/s	> 0.566 mg/mL	> 100 µM	> 100 µM	4.26 µM	0.527 µM	0.197 µM
O=C1Cc2cc(-c3noc([C@H]4CCCCN4C(=O)COc4ccccc4)n3)ccc2N1	2.93	26.1 nm/s	0.0145 mg/mL (≈ 34.7 µM)	53.5 µM	42.9 µM	27.6 µM	0.0708 µM	0.0132 µM
COc1ccc(Cl)cc1S(=O)(=O)Nc1cc(C(=O)Nc2ccc(C(=O)O)cc2)cc(OC)c1OC	0.56	15.7 nm/s	> 0.598 mg/mL	1.07 µM	3.03 µM	> 100 µM	0.253 µM	0.0436 µM
O=C1CNc2ccc(-c3nc([C@H]4CCCCN4C(=O)COc4ccccc4)no3)cc2N1	2.38	18.3 nm/s	0.023 mg/mL (≈ 53.1 µM)	> 100 µM	21.2 µM	> 100 µM	0.458 µM	0.0941 µM

Results, then the compound that gave them:

logD [1]	Papp [2]	solubility kinetic [3]	IC50 [4]	IC50 [5]	IC50 [6]	IC50 [7]	IC50 [8]	SMILES
2.59	13.6 nm/s	0.064 mg/mL (≈ 146 µM)	> 100 µM	21 µM	51.8 µM	0.0954 µM	0.134 µM	COc1ccc(Cl)cc1S(=O)(=O)N[C@@H]1CCCN(C(=O)COc2ccccc2)C1
2.42	53.7 nm/s	0.071 mg/mL (≈ 188 µM)	> 100 µM	> 100 µM	> 100 µM	0.815 µM	0.109 µM	Nc1cccc(-c2n[nH]c([C@H]3CCCCN3C(=O)COc3ccccc3)n2)c1
2.7	8.6 nm/s	0.044 mg/mL (≈ 95 µM)	> 100 µM	> 100 µM	2.47 µM	0.119 µM	0.13 µM	COc1ccc(Cl)cc1Cc1cn(C)c2ccc(C(=O)Nc3ccc(CC(=O)O)cc3)cc12
2.38	7.5 nm/s	0.008 mg/mL (≈ 18.1 µM)	> 100 µM	> 100 µM	45.1 µM	0.0852 µM	0.226 µM	COc1ccc(Cl)cc1S(=O)(=O)Nc1cccc(C#Cc2ccc(C(=O)O)cc2)c1
1.3	22.4 nm/s	0.017 mg/mL (≈ 36.3 µM)	> 100 µM	> 100 µM	1.35 µM	0.0862 µM	0.0668 µM	O=C(O)Cc1ccc(NC(=O)c2ccc3ccn(S(=O)(=O)c4cccc(Cl)c4)c3c2)cc1
2.17	43.7 nm/s	0.147 mg/mL (≈ 340 µM)	57.1 µM	47.1 µM	> 100 µM	1.09 µM	0.165 µM	CN(C)C(=O)c1ccc(-c2noc(C3C4CC4CN3C(=O)COc3ccccc3)n2)cc1 (configuration not stated)
